Results from patent US20100306877A1, “FLAVONOID GLUCOSYLTRANSFERASE AND USE OF SAME” (International Flower Development Proprietary Limited, priority 2006, published 2010).

System: protein encoded by cDNA contained in pSPB1123 (flavonol 3GT)
Assay: Glucosyltransferase activity of the protein encoded by pSPB1123 cDNA expressed in yeast, product measured by HPLC
Type: biochemical, rose
Settings: flavonol substrates compared
Description: In order to analyze the activity of a protein encoded by cDNA contained in pSPB1123, this cDNA was expressed in yeast cells. Yeast expression vector pYE22m (Plant Cell Physiol. (1996) 37, 711-716) was used to express the cDNA in yeast. A fragment obtained by digested pSPB1123 cDNA with EcoRI and KpnI was inserted into an EcoRI and KpnI recognition sequence of pYE22m to obtain a yeast expression vector. This vector was then inserted into yeast strain G1315 followed by measurement of activity of the protein encoded by pSPB1123 according to the method described on pp. 114-118 of Shinseibutsugaku Jikken (New Biological Experiment) Manual 3 (Kagaku-Dojin Publishing Co., Inc.). The method for measuring activity and the conditions for measuring a product by HPLC were the same as the method and the like described in Plant Physiology (2003) 132, 1652-1663. Furthermore, anthocyanin (cyanidin, pelargonidin), cyanidin 3-glucoside (cyanidin 3G), cyanidin 3,5-diglucoside (cyanidin 3,5G), flavonol (quercetin, kaempferol) and flavone (apigenin, luteolin) were used as substrates for measurement of the activity.

Row | SMILES | substrate preference
1 | O=c1c(O)c(-c2ccc(O)cc2)oc2cc(O)cc(O)c12 [kaempferol] | prefer quercetin to kaempferol
2 | O=c1c(O)c(-c2ccc(O)c(O)c2)oc2cc(O)cc(O)c12 [quercetin] | prefer quercetin to kaempferol
